Assay results published in patent US20240158446A1, “CYCLIC COMPOUND HAVING SELECTIVE INHIBITORY ACTION ON KRAS OVER HRAS AND NRAS” (CHUGAI SEIYAKU KABUSHIKI KAISHA, priority 2021, published 2024).

Assays:
[1] = tested on: human lung cancer strain NCI-H441; assay: cells; conditions: NCI-H441, 96 h, read-out: NCI-H441 IC50 (nM), NCI-H441 cell proliferation, 4 days, CellTiter-Glo;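 note: cell proliferation inhibition after four days measured by CellTiter-Glo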
[2] = target: GDP-bound NRAS wild-type protein (Homo sapiens, UniProt P01111); assay: Binding to NRAS by surface plasmon resonance (SPR), Single Cycle Kinetics; conditions: ratio of KD for GDP-bound NRAS wild-type protein to KD for KRAS, SPR
[3] = target: GDP-bound KRAS wild-type protein (Homo sapiens, UniProt P01116); assay: Binding to KRAS by surface plasmon resonance (SPR), Single Cycle Kinetics; conditions: SPR, Single Cycle Kinetics, GDP-bound KRAS wild-type protein; read-out: KRAS KD
[4] = target: GDP-bound HRAS wild-type protein (Homo sapiens, UniProt P01112); assay: Binding to HRAS by surface plasmon resonance (SPR), Single Cycle Kinetics; conditions: ratio of KD for GDP-bound HRAS wild-type protein to KD for KRAS, SPR
Chain of GDP-bound HRAS wild-type protein (P01112 whole entry): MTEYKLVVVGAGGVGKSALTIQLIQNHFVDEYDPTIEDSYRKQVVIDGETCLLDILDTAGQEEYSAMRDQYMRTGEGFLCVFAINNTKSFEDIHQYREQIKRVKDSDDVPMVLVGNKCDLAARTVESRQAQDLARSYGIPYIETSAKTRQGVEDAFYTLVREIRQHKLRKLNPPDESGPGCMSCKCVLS

Chain of GDP-bound KRAS wild-type protein (P01116 whole entry): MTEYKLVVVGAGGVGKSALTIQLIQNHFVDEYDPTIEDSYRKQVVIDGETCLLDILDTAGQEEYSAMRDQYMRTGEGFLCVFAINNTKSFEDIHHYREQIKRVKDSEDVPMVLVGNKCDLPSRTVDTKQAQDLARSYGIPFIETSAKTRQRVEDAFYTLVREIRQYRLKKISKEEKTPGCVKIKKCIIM
Chain of GDP-bound NRAS wild-type protein (P01111 whole entry): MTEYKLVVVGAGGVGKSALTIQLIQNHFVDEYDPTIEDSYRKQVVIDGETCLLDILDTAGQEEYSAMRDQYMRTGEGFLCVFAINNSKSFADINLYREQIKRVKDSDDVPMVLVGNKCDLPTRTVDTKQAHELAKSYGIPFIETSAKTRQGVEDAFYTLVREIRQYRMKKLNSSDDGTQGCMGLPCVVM

IC50 [1] [nM]	Kd [3] [nM]	Structure (SMILES)	NRAS/KRAS (KD ratio) [2]	HRAS/KRAS (KD ratio) [4]
79.3	0.36	CCC[C@H]1C(=O)N[C@@H]([C@@H](C)CC)C(=O)N(C)CC(=O)N(C)[C@H]2C/C=C\CCN(C2=O)[C@@H](Cc2ccc(C(F)(F)F)cc2)C(=O)N(C)CC(=O)N[C@@H](CCc2cc(F)c(C(F)(F)F)c(F)c2)C(=O)N(CC)CC(=O)NC2(CC(C)(C)C2)C(=O)N(C)[C@@H](C2CCCC2)C(=O)N(C)[C@H](C(=O)N(C)C)CC(=O)N1C [PP1777]	A (a compound having 10 or more and less than 20 is denoted as A)	B (a compound having 3 or more and less than 10 is denoted as B)
5.4	0.034	CCO[C@@H]1C[C@H]2C(=O)N(C)C3(CCC3)C(=O)N(C)[C@@H](C3CCCC3)C(=O)N(C)[C@H](C(=O)N(C)C)CC(=O)N(C)[C@@H](CC)C(=O)N[C@@H]([C@@H](C)CC)C(=O)N(C)CC(=O)N(C)[C@H]3C/C=C\CCN(C3=O)[C@@H](Cc3ccc(C(F)(F)F)cc3)C(=O)N(C)CC(=O)N[C@@H](CCc3cc(F)c(C(F)(F)F)c(F)c3)C(=O)N2C1 [PP1779]	A (a compound having 10 or more and less than 20 is denoted as A)	B (a compound having 3 or more and less than 10 is denoted as B)
8.2	0.065	CC[C@H](C)[C@@H]1NC(=O)[C@H](CC)N(C)C(=O)C[C@@H](C(=O)N(C)C)N(C)C(=O)[C@H](C2CCCC2)N(C)C(=O)C2(CCC2)N(C)C(=O)[C@@H]2CCCN2C(=O)[C@H](CCc2cc(F)c(C(F)(F)F)c(F)c2)NC(=O)CN(C)C(=O)[C@H](Cc2ccc(C(F)(F)F)cc2)N2CC/C=C\C[C@@H](C2=O)N(C)C(=O)CN(C)C1=O [PP1780]	A (a compound having 10 or more and less than 20 is denoted as A)	A (a compound having 10 or more and less than 20 is denoted as A)
2.1	0.024	CCO[C@@H]1C[C@H]2C(=O)N(C)C3(CCC3)C(=O)N(C)[C@@H](C3CCCC3)C(=O)N(C)[C@H](C(=O)N(C)C)CC(=O)N(C)[C@@H](CC)C(=O)N[C@@H]([C@@H](C)CC)C(=O)N(C)CC(=O)N(C)[C@H]3C/C=C\CCN(C3=O)[C@@H](Cc3ccc(C)cc3)C(=O)N(C)CC(=O)N[C@@H](CCc3cc(F)c(C(F)(F)F)c(F)c3)C(=O)N2C1 [PP1781]	A (a compound having 10 or more and less than 20 is denoted as A)	B (a compound having 3 or more and less than 10 is denoted as B)
3.5	0.028	CCO[C@@H]1C[C@H]2C(=O)N(C)C3(CCC3)C(=O)N(C)[C@@H](C3CCCC3)C(=O)N(C)[C@H](C(=O)N(C)C)CC(=O)N(C)[C@@H](C3CC3)C(=O)N[C@@H]([C@@H](C)CC)C(=O)N(C)CC(=O)N(C)[C@H]3C/C=C\CCN(C3=O)[C@@H](Cc3ccc(C)cc3)C(=O)N(C)CC(=O)N[C@@H](CCc3cc(F)c(C(F)(F)F)c(F)c3)C(=O)N2C1 [PP1783]	A (a compound having 10 or more and less than 20 is denoted as A)	B (a compound having 3 or more and less than 10 is denoted as B)
7.8	0.083	CC[C@H](C)[C@@H]1NC(=O)[C@H](C2CC2)N(C)C(=O)C[C@@H](C(=O)N(C)C)N(C)C(=O)[C@H](C2CCCC2)N(C)C(=O)C2(CCC2)N(C)C(=O)[C@@H]2CCCN2C(=O)[C@H](CCc2cc(F)c(C(F)(F)F)c(F)c2)NC(=O)CN(C)C(=O)[C@H](Cc2ccc(C)cc2)N2CC/C=C\C[C@@H](C2=O)N(C)C(=O)CN(C)C1=O [PP1784]	A (a compound having 10 or more and less than 20 is denoted as A)	B (a compound having 3 or more and less than 10 is denoted as B)
6.9	0.051	CCO[C@@H]1C[C@H]2C(=O)N(C)C3(CCC3)C(=O)N(C)[C@@H](C3CCCC3)C(=O)N(C)[C@H](C(=O)N(C)C)CC(=O)N(C)[C@@H](CC)C(=O)N[C@@H]([C@@H](C)CC)C(=O)N3CCC[C@H]3C(=O)N(C)[C@H]3C/C=C\CCN(C3=O)[C@@H](Cc3ccc(C)cc3)C(=O)N(C)CC(=O)N[C@@H](CCc3cc(F)c(C(F)(F)F)c(F)c3)C(=O)N2C1 [PP1785]	A (a compound having 10 or more and less than 20 is denoted as A)	A (a compound having 10 or more and less than 20 is denoted as A)
11.4	0.14	CC[C@H](C)[C@@H]1NC(=O)[C@H](CC)N(C)C(=O)C[C@@H](C(=O)N(C)C)N(C)C(=O)[C@H](C2CCCC2)N(C)C(=O)C2(CCC2)N(C)C(=O)[C@@H]2CCCN2C(=O)[C@H](CCc2cc(F)c(C(F)(F)F)c(F)c2)NC(=O)CN(C)C(=O)[C@H](Cc2ccc(C)cc2)N2CC/C=C\C[C@@H](C2=O)N(C)C(=O)[C@@H]2CCCN2C1=O [PP1786]	A (a compound having 10 or more and less than 20 is denoted as A)	B (a compound having 3 or more and less than 10 is denoted as B)
9.5	0.13	CC[C@H](C)[C@@H]1NC(=O)[C@H](CC)N(C)C(=O)C[C@@H](C(=O)N(C)C)N(C)C(=O)[C@H](C2CCCC2)N(C)C(=O)C2(CCC2)N(C)C(=O)[C@@H]2C[C@@H](C)CN2C(=O)[C@H](CCc2cc(F)c(C(F)(F)F)c(F)c2)NC(=O)CN(C)C(=O)[C@H](Cc2ccc(C)cc2)N2CC/C=C\C[C@@H](C2=O)N(C)C(=O)[C@@H]2CCCN2C1=O [PP1789]	A (a compound having 10 or more and less than 20 is denoted as A)	A (a compound having 10 or more and less than 20 is denoted as A)
1.7	0.03	CCO[C@@H]1C[C@H]2C(=O)N(C)C3(CCC3)C(=O)N(C)[C@@H](C3CCCC3)C(=O)N(C)[C@H](C(=O)N(C)C)CC(=O)N(C)[C@@H](CC(C)C)C(=O)N[C@@H]([C@@H](C)CC)C(=O)N(C)CC(=O)N(C)[C@H]3C/C=C\CCN(C3=O)[C@@H](Cc3ccc(C)cc3)C(=O)N(C)CC(=O)N[C@@H](CCc3cc(F)c(C(F)(F)F)c(F)c3)C(=O)N2C1 [PP1790]	A (a compound having 10 or more and less than 20 is denoted as A)	B (a compound having 3 or more and less than 10 is denoted as B)
2.4	0.023	CCC[C@H]1C(=O)N[C@@H]([C@@H](C)CC)C(=O)N(C)CC(=O)N(C)[C@H]2C/C=C\CCN(C2=O)[C@@H](Cc2ccc(C)cc2)C(=O)N(C)CC(=O)N[C@@H](CCc2cc(F)c(C(F)(F)F)c(F)c2)C(=O)N2C[C@H](OCC)C[C@H]2C(=O)N(C)C2(CCC2)C(=O)N(C)[C@@H](C2CCCC2)C(=O)N(C)[C@H](C(=O)N(C)C)CC(=O)N1C [PP1793]	A (a compound having 10 or more and less than 20 is denoted as A)	B (a compound having 3 or more and less than 10 is denoted as B)
5.1	0.1	CCO[C@@H]1C[C@H]2C(=O)N(C)C3(CCC3)C(=O)N(C)[C@@H](C3CCCC3)C(=O)N(C)[C@H](C(=O)N(C)C)CC(=O)N(C)[C@@H](CC3CC3)C(=O)N[C@@H]([C@@H](C)CC)C(=O)N3CCC[C@H]3C(=O)N(C)[C@H]3C/C=C\CCN(C3=O)[C@@H](Cc3ccc(C)cc3)C(=O)N(C)CC(=O)N[C@@H](CCc3cc(F)c(C(F)(F)F)c(F)c3)C(=O)N2C1 [PP1797]	A (a compound having 10 or more and less than 20 is denoted as A)	A (a compound having 10 or more and less than 20 is denoted as A)
7.8	0.15	CC[C@H](C)[C@@H]1NC(=O)[C@H](CC2CC2)N(C)C(=O)C[C@@H](C(=O)N(C)C)N(C)C(=O)[C@H](C2CCCC2)N(C)C(=O)C2(CCC2)N(C)C(=O)[C@@H]2CCCN2C(=O)[C@H](CCc2cc(F)c(C(F)(F)F)c(F)c2)NC(=O)CN(C)C(=O)[C@H](Cc2ccc(C)cc2)N2CC/C=C\C[C@@H](C2=O)N(C)C(=O)[C@@H]2CCCN2C1=O [PP1798]	A (a compound having 10 or more and less than 20 is denoted as A)	B (a compound having 3 or more and less than 10 is denoted as B)
7.6	0.068	CCC[C@H]1C(=O)N[C@@H]([C@@H](C)CC)C(=O)N(C)CC(=O)N(C)[C@H]2C/C=C\CCN(C2=O)[C@@H](Cc2ccc(C)cc2)C(=O)N(C)CC(=O)N[C@@H](CCc2cc(F)c(C(F)(F)F)c(F)c2)C(=O)N2C[C@H](C)C[C@H]2C(=O)N(C)C2(CCC2)C(=O)N(C)[C@@H](C2CCCC2)C(=O)N(C)[C@H](C(=O)N(C)C)CC(=O)N1C [PP1799]	B (a compound having 3 or more and less than 10 is denoted as B)	B (a compound having 3 or more and less than 10 is denoted as B)
5.8	0.082	CC[C@H](C)[C@@H]1NC(=O)[C@H](CC2CCC2)N(C)C(=O)C[C@@H](C(=O)N(C)C)N(C)C(=O)[C@H](C2CCCC2)N(C)C(=O)C2(CCC2)N(C)C(=O)[C@@H]2CCCN2C(=O)[C@H](CCc2cc(F)c(C(F)(F)F)c(F)c2)NC(=O)CN(C)C(=O)[C@H](Cc2ccc(C)cc2)N2CC/C=C\C[C@@H](C2=O)N(C)C(=O)CN(C)C1=O [PP1802]	A (a compound having 10 or more and less than 20 is denoted as A)	B (a compound having 3 or more and less than 10 is denoted as B)
3.5	0.056	CCO[C@@H]1C[C@H]2C(=O)N(C)C3(CCCC3)C(=O)N(C)[C@@H](C3CCCC3)C(=O)N(C)[C@H](C(=O)N(C)C)CC(=O)N(C)[C@@H](CC)C(=O)N[C@@H]([C@@H](C)CC)C(=O)N(C)CC(=O)N(C)[C@H]3C/C=C\CCN(C3=O)[C@@H](Cc3ccc(C(F)(F)F)cc3)C(=O)N(C)CC(=O)N[C@@H](CCc3cc(F)c(C(F)(F)F)c(F)c3)C(=O)N2C1 [PP1804]	A (a compound having 10 or more and less than 20 is denoted as A)	A (a compound having 10 or more and less than 20 is denoted as A)
